This assay deals with T1, human FOXO1 (constitutively active form Thr24Ala, Ser256Ala, Ser319Ala) (Homo sapiens, UniProt Q12778, S256A/S319A/T24A).
T1 construct: expressed in transfected cells; host or cells: HEK293 cells transfected with pcDNA3.1 plasmid
The experiment in a line: FOXO1 inhibitor activity assay: cell-based transcriptional (luciferase) reporter assay in HEK293 cells. The conditions noted are these: HEK293 cells transfected with insulin response element firefly luciferase reporter, FOXO1 and Renilla luciferase; 10-point dose response 50 μM to 2.5 nM; 24 hours. The method, then:
The inhibitory activities of compounds on FOXO1 were determined by a cell-based transcriptional reporter assay. HEK293 cells were plated onto either 384-well poly-D-lysine coated plates (at 7500 cells per well) or 96-well plates (at 20000 cells per well) in low glucose Eagle's Minimum Essential Medium (EMEM) containing 1% fetal bovine serum, and incubated overnight at 37° C. and 5% CO2. […] Duplicate wells were included for each treatment condition. Cells were incubated for 24 hours at 37° C. and 5% CO2. Luciferase activities in each well were measured using Dual-Glog Luciferase Assay System (Promega) according to manufacturer's protocol and an Envision plate reader suitable for luminescence detection. Firefly luciferase activity was divided by Renilla luciferase activity to calculate a ratio for each well. The ratio in wells containing cells transfected with all 3 plasmids listed above and receiving only DMSO without compound addition was set to 100%. The ratio in wells containing cells transfected with plasmid (1), plasmid (3), and pcDNA3.1 containing the open reading frame of red fluorescent protein (instead of human FOXO1) and treated with DMSO was set to 0%. The ratio in each well receiving compound treatment was normalized and expressed as a percentage. Data were fit by 4-parameter logistic regression to determine IC50 and maximal inhibition values. Each compound was tested in a minimum of 2 independent experiments.

IC50 data for 14 molecules are collected here from patent publication US20230416228A1 (Forkhead Biotherapeutics, Inc., priority 2020, published 2023).

The structures appear in SMILES notation. Bounds are passed on as bounds.

T1 sequence (Q12778 whole entry T24A/S256A/S319A): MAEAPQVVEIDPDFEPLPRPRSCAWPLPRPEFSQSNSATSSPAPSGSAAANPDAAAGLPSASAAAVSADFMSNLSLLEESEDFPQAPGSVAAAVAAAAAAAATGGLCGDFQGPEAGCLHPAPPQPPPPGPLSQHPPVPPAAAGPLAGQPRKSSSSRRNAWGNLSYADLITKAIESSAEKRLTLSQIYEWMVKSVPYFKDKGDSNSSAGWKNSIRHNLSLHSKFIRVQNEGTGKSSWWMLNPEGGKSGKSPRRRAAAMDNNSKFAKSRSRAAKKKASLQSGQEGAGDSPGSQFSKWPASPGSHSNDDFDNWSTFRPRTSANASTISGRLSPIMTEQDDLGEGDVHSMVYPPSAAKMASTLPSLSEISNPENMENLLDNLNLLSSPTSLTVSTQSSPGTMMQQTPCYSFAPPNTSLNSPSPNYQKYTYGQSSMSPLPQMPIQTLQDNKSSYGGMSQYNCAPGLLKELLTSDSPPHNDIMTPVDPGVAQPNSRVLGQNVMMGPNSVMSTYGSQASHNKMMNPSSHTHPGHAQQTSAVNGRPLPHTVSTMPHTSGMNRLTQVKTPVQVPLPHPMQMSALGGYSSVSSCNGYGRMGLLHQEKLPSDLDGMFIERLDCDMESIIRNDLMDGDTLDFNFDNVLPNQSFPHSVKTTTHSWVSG

For orientation: IC50 means the point on the concentration scale where inhibition reaches its midpoint. The low end stands for higher potency, the high end for lower potency. Molecule `Cn1nc(NC(=O)c2ccc(N3CCN4C(=O)CC[C@@H]4C3)nc2)cc1-c1nc2ccccc2[nH]1` [Compound A-249, 6-[(8aR)-6-oxo-1,3,4,7,8,8a-hexahydropyrrolo[1,2-a]pyrazin-2-yl]-N-[5-(1H-benzimidazol-2-yl)-1-methyl-pyrazol-3-yl]pyridine-3-carboxamide] had an IC50 of 100 to 300 nM.

In turn, `O=C(NCc1ccccc1)Nc1cc(-c2nc3ccccc3[nH]2)[nH]n1` [Compound A-138, 1-[5-(1H-benzimidazol-2-yl)-1H-pyrazol-3-yl]-3-benzyl-urea] returned a half-inhibitory concentration (IC50) of over 1000 nM.

`Cn1nc(NC(=O)c2ccc(N3CCN(C4COC4)CC3)cc2)cc1-c1nc2ccccc2[nH]1` [Compound A-215, N-[5-(1H-benzimidazol-2-yl)-1-methyl-pyrazol-3-yl]-4-[4-(oxetan-3-yl)piperazin-1-yl]benzamide] yielded an IC50 of 100 to 300 nM.

Molecule `COc1ccc(C(=O)Nc2nc(-c3nc4ccccc4[nH]3)n(C)n2)cc1Cl` [Compound A-234, N-[5-(1H-benzimidazol-2-yl)-1-methyl-1,2,4-triazol-3-yl]-3-chloro-4-methoxy-benzamide] had an IC50 of 300 to 1000 nM.

Take `COCCn1nc(NC(=O)c2ccc(N3CCN(C)CC3)nc2)cc1-c1nc2ccccc2[nH]1` [Compound A-182, N-[5-(1H-benzimidazol-2-yl)-1-(2-methoxyethyl)pyrazol-3-yl]-6-(4-methyl-piperazin-1-yl)pyridine-3-carboxamide]: the IC50 is 300 to 1000 nM.

For `CN1CCN(c2ccc(C(=O)Nc3cc(-c4nc5ccccc5[nH]4)n(C)n3)cc2)CC1` [Compound A-212, N-[5-(1H-benzimidazol-2-yl)-1-methyl-pyrazol-3-yl]-4-(4-methyl-piperazin-1-yl)benzamide], the IC50 was under 100 nM.

`COCCOc1ccc(C(=O)Nc2cc(-c3nc4ccccc4[nH]3)[nH]n2)cc1C(F)(F)F` [Compound A-104, N-[5-(1H-benzimidazol-2-yl)-1H-pyrazol-3-yl]-4-(2-methoxyethoxy)-3-(trifluoromethyl)benzamide] came in with an IC50 of under 100 nM.

Molecule `O=C(Nc1cc(-c2nc3cc(OC(F)(F)F)ccc3[nH]2)[nH]n1)c1ccc(N2CCOCC2)nc1` [Compound A-107, 6-morpholino-N-[5-[5-(trifluoromethoxy)-1H-benzimidazol-2-yl]-1H-pyrazol-3-yl]pyridine-3-carboxamide] gave an IC50 of over 1000 nM.

The molecule `Cn1nc(NC(=O)c2ccc(OCCO)c(Cl)c2)cc1-c1nc2cccc(F)c2[nH]1` [Compound A-165, 3-chloro-N-[5-(7-fluoro-1H-benzimidazol-2-yl)-1-methyl-pyrazol-3-yl]-4-(2-hydroxyethoxy)benzamide] came in with an IC50 of under 100 nM.

With `O=C(Nc1cc(-c2nc3ccccc3[nH]2)[nH]n1)c1ccc(OCCN2CCOCC2)c(Cl)c1` [Compound A-33, N-[5-(1H-benzimidazol-2-yl)-1H-pyrazol-3-yl]-3-chloro-4-(2-morpholinoethoxy)benzamide], the half-inhibitory concentration (IC50) was in the range of 100 to 300 nM.

Regarding `CN1CCN(c2ccc(C(=O)Nc3cc(-c4nc5ccccc5[nH]4)[nH]n3)nn2)CC1` [Compound A-177, N-[5-(1H-benzimidazol-2-yl)-1H-pyrazol-3-yl]-6-(4-methylpiperazin-1-yl)pyridazine-3-carboxamide], the IC50 was over 1000 nM.

Turning to `CC(=O)N1CCN(c2ccc(C(=O)Nc3cc(-c4nc5ccccc5[nH]4)[nH]n3)cn2)CC1` [Compound A-233], the IC50 was 300 to 1000 nM.

`O=C(Nc1cc(-c2nc3ccccc3[nH]2)[nH]n1)c1ccc(N2CCC[C@H]2C(=O)O)nc1` [Compound A-48, (2S)-1-[5-[[5-(1H-benzimidazol-2-yl)-1H-pyrazol-3-yl]carbamoyl]-2-pyridyl]pyrrolidine-2-carboxylic acid] came in with an IC50 of over 1000 nM.

With `O=C(Nc1cc(-c2nc3cc(Br)ccc3[nH]2)[nH]n1)c1ccc(OCCO)c(Cl)c1` [Compound A-118, N-[5-(5-bromo-1H-benzimidazol-2-yl)-1H-pyrazol-3-yl]-3-chloro-4-(2-hydroxyethoxy)benzamide], the IC50 lay in the range of 300 to 1000 nM.
